Measured values as given in PubChem BioAssay (NCI).
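At the GI50, growth is halved. TGI marks complete inhibition of growth.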

Tests used:
Experiment in all cases: NCI-60 cell line screen, 384-well format
[1] = tested on: 786-0 renal
[2] = tested on: A498 renal
[3] = tested on: A549 NSCLC
[4] = tested on: ACHN renal
[5] = tested on: BT-549 breast
[6] = tested on: CAKI-1 renal
[7] = tested on: CCRF-CEM leukemia
[8] = tested on: EKVX NSCLC
[9] = tested on: HCC-2998 colon
[10] = tested on: HCT-116 colon
[11] = tested on: HCT-15 colon
[12] = tested on: HL-60(TB) leukemia
[13] = tested on: HOP-62 NSCLC
[14] = tested on: HOP-92 NSCLC
[15] = tested on: HS 578T breast
[16] = tested on: HT29 colon
[17] = tested on: IGROV1 ovarian
[18] = tested on: K-562 leukemia
[19] = tested on: LOX IMVI melanoma
[20] = tested on: MALME-3M melanoma
[21] = tested on: MCF7 breast
[22] = tested on: MDA-MB-435 melanoma
[23] = tested on: MDA-MB-468 breast
[24] = tested on: MOLT-4 leukemia
[25] = tested on: NCI-H226 lung
[26] = tested on: NCI-H23 lung
[27] = tested on: NCI-H460 NSCLC
[28] = tested on: NCI-H522 lung
[29] = tested on: NCI/ADR-RES ovarian
[30] = tested on: OVCAR-3 ovarian
[31] = tested on: OVCAR-4 ovarian
[32] = tested on: OVCAR-5 ovarian
[33] = tested on: OVCAR-8 ovarian
[34] = tested on: PC-3 prostate
[35] = tested on: RPMI-8226 leukemia
[36] = tested on: RXF 393 renal
[37] = tested on: SF-268 CNS
[38] = tested on: SF-295 CNS
[39] = tested on: SF-539 CNS
[40] = tested on: SK-MEL-5 melanoma
[41] = tested on: SK-OV-3 ovarian
[42] = tested on: SN12C renal
[43] = tested on: SNB-19 CNS
[44] = tested on: SNB-75 CNS
[45] = tested on: SW-620 colon
[46] = tested on: T-47D breast
[47] = tested on: TK-10 renal
[48] = tested on: U251 glioblastoma
[49] = tested on: UO-31 renal

Structure (SMILES): COc1cc(C(=O)NC2CCN(C)CC2)c(F)cc1Nc1ncc2c(n1)N(C1CCCC1)CC(F)(F)C(=O)N2C
- GI50 [1]: 30.8 nM
- TGI [1]: 1430 nM
- GI50 [2]: 99.5 nM
- TGI [2]: 10700 nM
- GI50 [3]: < 10 nM
- TGI [3]: 410 nM
- GI50 [4]: 83.1 nM
- TGI [4]: 11300 nM
- GI50 [5]: 30.9 nM
- TGI [5]: 242 nM
- GI50 [6]: 93.2 nM
- TGI [6]: 10500 nM
- GI50 [7]: < 10 nM
- TGI [7]: < 10 nM
- GI50 [8]: 91.7 nM
- TGI [8]: 6980 nM
- GI50 [9]: 13.5 nM
- TGI [9]: 51.5 nM
- GI50 [10]: < 10 nM
- TGI [10]: 1340 nM
- GI50 [11]: 21.4 nM
- TGI [11]: 160 nM
- GI50 [12]: < 10 nM
- TGI [12]: < 10 nM
- GI50 [13]: < 10 nM
- TGI [13]: 2900 nM
- GI50 [14]: 41.3 nM
- TGI [14]: 1400 nM
- GI50 [15]: 13.5 nM
- TGI [15]: 42.1 nM
- GI50 [16]: < 10 nM
- TGI [16]: 19.3 nM
- GI50 [17]: 29.8 nM
- TGI [17]: 2820 nM
- GI50 [18]: < 10 nM
- TGI [18]: 53.7 nM
- GI50 [19]: 16.7 nM
- TGI [19]: 1150 nM
- GI50 [20]: 26.5 nM
- TGI [20]: 1530 nM
- GI50 [21]: < 10 nM
- TGI [21]: 1510 nM
- GI50 [22]: < 10 nM
- TGI [22]: 10.8 nM
- GI50 [23]: < 10 nM
- TGI [23]: < 10 nM
- GI50 [24]: < 10 nM
- TGI [24]: < 10 nM
- GI50 [25]: 1330 nM
- TGI [25]: 6330 nM
- GI50 [26]: < 10 nM
- TGI [26]: 16.7 nM
- GI50 [27]: < 10 nM
- TGI [27]: 14.7 nM
- GI50 [28]: < 10 nM
- TGI [28]: < 10 nM
- GI50 [29]: 50.9 nM
- TGI [29]: 206 nM
- GI50 [30]: < 10 nM
- TGI [30]: 14.1 nM
- GI50 [31]: 1630 nM
- TGI [31]: 5880 nM
- GI50 [32]: 14 nM
- TGI [32]: 1730 nM
- GI50 [33]: 10.4 nM
- TGI [33]: 26.8 nM
- GI50 [34]: 33.4 nM
- TGI [34]: 13100 nM
- GI50 [35]: 16.3 nM
- TGI [35]: 31.5 nM
- GI50 [36]: < 10 nM
- TGI [36]: 27.4 nM
- GI50 [37]: < 10 nM
- TGI [37]: < 10 nM
- GI50 [38]: 30.8 nM
- TGI [38]: 272 nM
- GI50 [39]: 20.5 nM
- TGI [39]: 1060 nM
- GI50 [40]: < 10 nM
- TGI [40]: 42.8 nM
- GI50 [41]: 16.7 nM
- TGI [41]: 1160 nM
- GI50 [42]: 246 nM
- TGI [42]: 3440 nM
- GI50 [43]: 17.5 nM
- TGI [43]: 5750 nM
- GI50 [44]: 47.2 nM
- TGI [44]: 3280 nM
- GI50 [45]: < 10 nM
- TGI [45]: 28.4 nM
- GI50 [46]: 26.1 nM
- TGI [46]: 1270 nM
- GI50 [47]: 1380 nM
- TGI [47]: 5990 nM
- GI50 [48]: < 10 nM
- TGI [48]: 2360 nM
- GI50 [49]: 52.1 nM
- TGI [49]: 2030 nM
